target: Tyrosine-protein kinase JAK2 (Homo sapiens, UniProt O60674)
Sequence (O60674 whole entry): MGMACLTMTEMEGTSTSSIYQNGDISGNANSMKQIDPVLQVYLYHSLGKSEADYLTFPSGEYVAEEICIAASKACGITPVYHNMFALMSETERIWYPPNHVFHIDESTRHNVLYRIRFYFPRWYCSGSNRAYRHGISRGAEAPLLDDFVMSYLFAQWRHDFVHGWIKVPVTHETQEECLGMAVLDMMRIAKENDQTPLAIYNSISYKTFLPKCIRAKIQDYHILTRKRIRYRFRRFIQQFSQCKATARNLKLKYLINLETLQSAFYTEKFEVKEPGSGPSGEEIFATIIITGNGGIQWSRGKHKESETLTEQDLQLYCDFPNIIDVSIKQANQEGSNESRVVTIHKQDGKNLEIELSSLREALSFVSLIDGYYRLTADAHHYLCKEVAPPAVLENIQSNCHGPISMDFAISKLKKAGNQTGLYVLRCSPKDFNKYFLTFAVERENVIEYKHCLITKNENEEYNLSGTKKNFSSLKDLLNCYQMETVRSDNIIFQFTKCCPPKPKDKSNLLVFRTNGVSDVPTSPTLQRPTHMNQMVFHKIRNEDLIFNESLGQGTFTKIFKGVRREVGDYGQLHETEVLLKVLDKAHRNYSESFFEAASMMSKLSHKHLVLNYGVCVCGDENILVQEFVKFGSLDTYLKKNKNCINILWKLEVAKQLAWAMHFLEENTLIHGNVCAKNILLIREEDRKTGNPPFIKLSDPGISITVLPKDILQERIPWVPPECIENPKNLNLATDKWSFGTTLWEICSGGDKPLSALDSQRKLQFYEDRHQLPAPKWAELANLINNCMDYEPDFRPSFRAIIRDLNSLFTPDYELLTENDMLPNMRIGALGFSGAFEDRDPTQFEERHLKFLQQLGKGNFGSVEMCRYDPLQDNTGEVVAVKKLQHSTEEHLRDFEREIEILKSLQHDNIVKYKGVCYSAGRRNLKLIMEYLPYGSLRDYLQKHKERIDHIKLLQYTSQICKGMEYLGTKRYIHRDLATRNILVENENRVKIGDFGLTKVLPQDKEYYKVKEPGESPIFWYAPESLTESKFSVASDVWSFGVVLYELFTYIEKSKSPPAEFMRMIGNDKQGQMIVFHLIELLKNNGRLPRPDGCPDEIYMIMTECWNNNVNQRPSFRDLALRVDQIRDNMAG
Description: Inhibition of human JAK2 (532-1132) by time resolved fluorescence assay

Compound	IC50 [nM]
N#Cc1ccc2ncn(-c3ncc4[nH]c(=O)n(Cc5c(F)cccc5F)c4n3)c2c1	28
N#Cc1ccc2ncn(-c3ncc4[nH]c(=O)n(Cc5c(Cl)cccc5Cl)c4n3)c2c1	1550
N#Cc1ccc2ncn(-c3ncc4[nH]c(=O)n([C@@H]5CCOc6c(F)cccc65)c4n3)c2c1	5
O=c1[nH]c2cnc(-n3cnc4ccc(Cl)cc43)nc2n1C1CCOCC1	393
N#Cc1ccc2ncn(-c3ncc4[nH]c(=O)n(C5CCOCC5)c4n3)c2c1	470
N#Cc1ccc2ncn(-c3ncc4[nH]c(=O)n(Cc5cccc(F)c5F)c4n3)c2c1	270
O=c1[nH]c2cnc(-n3cnc4ccc(F)cc43)nc2n1Cc1c(F)cccc1F	320
O=c1[nH]c2cnc(-n3cnc4ccccc43)nc2n1[C@@H]1CCOc2c(F)cccc21	333
O=c1[nH]c2cnc(-n3cnc4ccccc43)nc2n1[C@H]1CCOc2c(F)cccc21	7000
O=c1[nH]c2cnc(-n3cnc4ccc(Cl)cc43)nc2n1[C@@H]1CCOc2c(F)cccc21	56
O=c1[nH]c2cnc(-n3cnc4ccc(F)cc43)nc2n1Cc1cccc(F)c1F	1000
O=c1[nH]c2cnc(-n3cnc4cc(C(F)(F)F)ccc43)nc2n1C1CCOCC1	1800
O=c1[nH]c2cnc(-n3cnc4ccc(C(F)(F)F)cc43)nc2n1C1CCOCC1	560
O=c1[nH]c2cnc(-n3cnc4ccc(F)cc43)nc2n1C1CCOCC1	3400
O=c1[nH]c2cnc(-n3cnc4ccccc43)nc2n1C1CCOc2ccc(Cl)cc21 (racemic)	500
O=c1[nH]c2cnc(-n3cnc4ccccc43)nc2n1C1CCOc2ccccc21 (racemic)	170
O=c1[nH]c2cnc(-n3cnc4ccccc43)nc2n1C1CCOc2cccc(F)c21 (racemic)	97
O=c1[nH]c2cnc(-n3cnc4ccccc43)nc2n1C1CCOc2cc(F)ccc21 (racemic)	95
O=c1[nH]c2cnc(-n3cnc4ccccc43)nc2n1C1CCOc2c(F)cccc21 (racemic)	285
O=c1[nH]c2cnc(-n3cnc4ccccc43)nc2n1C1CCOc2ccc(F)cc21 (racemic)	83

From ChEMBL document CHEMBL1154364, “2-Benzimidazolyl-9-(chroman-4-yl)-purinone derivatives as JAK3 inhibitors” (Bioorg Med Chem Lett, 2009)
